Patent publication US8841274B2, “Protein arginine N-methyltransferase-5 method of cancer treatment” (priority 2009, dated 2014)

Key:
Assay type in all cases: cell-based
[1] = test system: p73-luciferase or cyclinE-luciferase; experiment: Reporter assay with E2F-responsive promoters; details: U2OS cells, PRMT5 vs control siRNA, 48 h
Method: To further explore the role of arginine methylation in the transcription properties of E2F-1, wild-type E2F-1 was compared with the KK and KKK mutants in a reporter-based transfection assay, using E2F-responsive promoters derived from E2F target genes. The assay was performed under conditions in which each mutant protein was expressed at an equivalent level to wild-type E2F-1 (FIG. 4aii and bii), thus ruling out any difference in activity that could be attributed to protein levels. […] FIGS. 4a and b show the transcription properties of wild-type E2F-1, KK and KKK mutants. U2OS cells were transfected with expression vectors encoding WT or mutant E2F-1 protein, together with p73-luciferase (A) or cyclinE-luciferase (B) for 48 h as indicated, and pCMV-βgal to monitor transfection efficiency. Relative luciferase activity (luciferase/βgal) is shown together with expression level of ectopic proteins; n=3. […] PRMT5 (P) or control (C) non-targeting siRNA was transfected into U2OS cells together with p73-luciferase (i) or cyclinE-luciferase (ii) for 48 h, together with pCMV-βgal to monitor transfection efficiency. Relative luciferase activity is shown together with expression level of the ectopic proteins.
Cells were transfected with expression vectors (1 μg) encoding WT or the mutant E2F-1 proteins as indicated with E2F responsive luciferase reporters, namely p73-luciferase or cyclinE-luciferase, together with pCMV-βgal to monitor transfection efficiency. Cells were harvested, lysed 48 h post-transfection and luciferase activity measured as previously described (Janson et al 2008).

[2] = test system: U2OS cells; experiment: Apoptosis (sub-G1) by FACS in U2OS cells; details: n=3
Method: Whether arginine methylation influences E2F-1-dependent apoptosis was investigated by comparing the ability of wild-type E2F-1 to the KK and KKK mutants to induce cells with a sub-G1 DNA content (Stevens et al 2003). […] U2OS cells were transfected with expression vectors encoding wild-type E2F-1, KK and KKK as indicated for 48 h and analysed by FACS as described. The graph represents the relative change in sub-G1 populations compared to the empty vector control treatment; n=2.
(§1) The graph (i) represents the relative number of sub-G I cells (compared to the control treatment) in the indicated conditions; and (ii) the level of PRMT5 and E2F-1; n=3.
(§2) PRMT5 (P) or control (C) non-targeting siRNA (25 nM) was transfected into HCT116 p53+/+ (i), HCT116 p53−/− (ii) or U2OS (iii) cells and the cells were harvested 72 h post-transfection and analysed by FACS. The graph represents the actual number of sub-G1 cells in the indicated conditions, and the immunoblot the level of PRMT5 and actin control; n=3.
PRMT5 (P), E2F-1 (E) or control (C) non-targeting siRNA was transfected into U2OS cells and harvested 72 h post-transfection and analysed by FACS as described.
(§3) Cells were transfected with the indicated expression vectors together with pBB14-GFP (for 48 h) to monitor transfection efficiency or siRNA (for 48 h or 72 h) with or without treatment of the DNA damage agent for the last 16 h. Then, cells were fixed and stained with propidium iodide and analyzed by Flow Cytometry.

[3] = test system: C33A cells; experiment: Apoptosis upon PRMT5 depletion in C33A cells; details: PRMT5 vs control siRNA
Method: as §1
Cleaved PARP is indicated by the arrow.
as §3

[4] = test system: HCT116 p53+/+; experiment: Apoptosis (sub-G1) by FACS in HCT116 p53+/+ cells; details: siRNA 25 nM, 72 h, n=3
Method: as §2, §3

[5] = test system: HCT116 p53−/−; experiment: Apoptosis (sub-G1) by FACS in HCT116 p53−/− cells; details: siRNA 25 nM, 72 h, n=3
Method: as §2, §3

[6] = test system: SAOS2; experiment: Apoptosis (sub-G1) by FACS in SAOS2 cells with ectopic E2F-1; details: SAOS2 with wild-type E2F-1 expression vector 1 μg, 72 h; n=3
Method: PRMT5 (P) or control (C) non-targeting siRNA was transfected into SAOS2 together with an expression vector encoding wild-type E2F-1 (1 μg) as indicated, harvested at 72 h and processed as described in (a); n=3. […] This is consistent with the idea that PRMT5 mediates its effects through E2F-1.
as §3

[7] = test system: MEFs; experiment: Apoptosis by FACS in MEFs; details: MEFs (normal non-cancer cells), 72 h; n=3
Method: PRMT5 (P) or control (C) non-targeting siRNA was transfected into MEFs and cells harvested at 72 h post-transfection as indicated. Cell extracts were immunoblotted with anti-PRMT5 and anti-E2F-1. Actin levels served as the loading control.
MEFs were treated as described in 6c and thereafter analysed by FACS. In FIG. 6d the black bar represents the effect of C siRNA, and clear bar the effect of P siRNA; n=3.
as §3

[8] = test system: PRMT5; experiment: PRMT5 depletion by siRNA in U2OS cells, E2F-1 and E2F target gene levels
Text: The depletion of PRMT5 co-incided with increased levels of E2F-1 protein (FIG. 3c), which is compatible with the increased level and stability of the KK and KKK mutants (FIG. 3b). […] Extracts were immunoblotted with anti-PRMT5 and E2F-1, and GAPDH levels served as a loading control.
Further, E2F-1 RNA was higher under conditions of PRMT5 depletion, contrasting with the control siRNA treatment. […] RNA was extracted from cells treated as described above, and RNA levels of E2F-1 examined. RNA levels of 18S and GAPDH served as controls. […] Extracts were immunoblotted with anti-PRMT5, E2F-1, p73, Chk2, Chk1 and Cdc2 as indicated. Levels of GAPDH served as the loading control.
FIGS. 6f and 6g address the role of one of the key E2F target genes in the PRMT5 dependent apoptosis, i.e. p73. […] PRMT5 (P) or control (C) siRNA was transfected into U2OS cells and cells harvested at 72 h post-transfection. Both RNA (i) and protein (ii) levels were measured, as indicated, for p73, 18S and GAPDH (i) and PRMT5, E2F-1, p73 and GAPDH (ii). […] This experiment supports activation of the E2F1 pathway leading to apoptosis upon PRMT5 knockdown, i.e. PRMT5 normally acts to suppress activation of the pathway.
Oligofectamine transfection reagent (Invitrogen) was used to transfect cells with siRNAs for 72 h. siRNA treatment of cells was carried out using siRNA non-targeting (Dharmacon) as control or PRMT5 (5′ […] (SEQ ID NO:1)). p73 smart pool siRNA was from Dharmacon. siRNA treatment was for 72 h at 50 nM.

[9] = target: PRMT5 (Homo sapiens, UniProt O14744); experiment: Ubiquitination assay in U2OS cells after siRNA; set-up: The indicated GST proteins were incubated with U2OS cell lysate; endogenous in cells; host or cells: U2OS; details: PRMT5 vs control siRNA, MG132 20 nM 4 h
Method: U2OS cells were transfected with PRMT5 (P) or control (C) siRNA. After 24 h, cells were transfected with expression vectors encoding wild-type (WT) E2F-1 or the KKK mutant (2 μg) and His 6-ubiquitin (4 μg) as indicated. Cells were treated with MG132 ([…]) for 4 h before being collected. Cell lysates and Ni2+ pull-down eluates were analysed as described. Quantitation of ubiquitin signals was performed using ImageJ 1.43u, and the input protein levels are shown underneath.
Cells were transfected with pcDNA3.1a-ubiquitin (His-tagged) and treated as described. Briefly cells were harvested into 8 M urea, 0.1 M Na2HPO4/NaH2PO4, 0.01 M Tris-HCl, and pH 8.0. Cell lysate was incubated with nickel (Ni^2+-NTA)-agarose beads (Qiagen), 5 mM imidazole and 10 mM β-mercapthoethanol overnight at 4° C. The beads were collected and washed as described (Liu and Warbrick, 2006). Bound proteins were then eluted and assayed by immunoblotting.

Sequence of PRMT5 (Homo sapiens, UniProt O14744) (O14744 whole entry): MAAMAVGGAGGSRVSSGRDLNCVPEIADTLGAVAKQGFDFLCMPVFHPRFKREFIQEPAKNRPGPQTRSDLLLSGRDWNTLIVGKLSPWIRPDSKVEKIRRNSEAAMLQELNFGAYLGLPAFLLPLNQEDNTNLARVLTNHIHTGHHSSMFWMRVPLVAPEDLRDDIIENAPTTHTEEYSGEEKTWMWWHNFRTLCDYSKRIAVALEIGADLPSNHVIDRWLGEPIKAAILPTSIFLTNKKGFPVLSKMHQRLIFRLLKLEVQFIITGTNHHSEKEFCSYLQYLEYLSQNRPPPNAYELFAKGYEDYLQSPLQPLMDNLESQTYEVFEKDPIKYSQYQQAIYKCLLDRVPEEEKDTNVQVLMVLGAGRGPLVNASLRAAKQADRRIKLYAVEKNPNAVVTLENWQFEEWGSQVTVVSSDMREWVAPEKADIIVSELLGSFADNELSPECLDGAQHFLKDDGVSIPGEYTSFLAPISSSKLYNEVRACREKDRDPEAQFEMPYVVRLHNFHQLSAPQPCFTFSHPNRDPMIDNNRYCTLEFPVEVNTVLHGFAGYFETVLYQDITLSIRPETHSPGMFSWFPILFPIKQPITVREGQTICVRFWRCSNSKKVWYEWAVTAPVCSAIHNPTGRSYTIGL

- activity of E2F-1 responsive promoters [1]: more active
- E2F-1 ubiquitination [9]: affects the ubiquitination of E2F-1
Substance: 5′ CCGCUAUUGCACCUUGGAA (SEQ ID NO:1) [PRMT5 siRNA]
- apoptosis (sub-G1 cells) ([2]; U2OS cells, 72 h post-transfection, with or without etoposide 10 μM 16 h): increased level of apoptosis
- apoptosis (% sub-G1 cells) ([2]; U2OS, siRNA 25 nM, 72 h): induces apoptosis
- apoptosis [3]: increased level of apoptosis
- apoptosis (% sub-G1 cells) [4]: induces apoptosis
- apoptosis (% sub-G1 cells) [5]: induces apoptosis
- apoptosis [6]: enhanced levels of apoptosis
- apoptosis [7]: no apoptosis
- E2F-1 protein levels ([8]; 72 h, with or without etoposide 10 μM): increases E2F-1 protein levels
- protein levels of E2F target genes (p73, Chk1, Chk2, Cdc2) ([8]; 72 h, with or without etoposide or doxorubicin): induced
- p73 RNA and protein levels ([8]; 72 h post-transfection): upregulated
- E2F-1 RNA levels ([8]; contrasting with control siRNA): higher
